# Data from patent US9783552B2, “Soluble guanylate cyclase activators” (MERCK SHARP & DOHME CORP., priority 2013, dated 2017).
# pEC50: −log10 of the molar value.
# Target: T1, sGC α1/β1 heterodimer (Homo sapiens, UniProt Q02108+Q02153)
# T1 construct: expressed in transfected cells
# T1 sequence (Q02108 1-690): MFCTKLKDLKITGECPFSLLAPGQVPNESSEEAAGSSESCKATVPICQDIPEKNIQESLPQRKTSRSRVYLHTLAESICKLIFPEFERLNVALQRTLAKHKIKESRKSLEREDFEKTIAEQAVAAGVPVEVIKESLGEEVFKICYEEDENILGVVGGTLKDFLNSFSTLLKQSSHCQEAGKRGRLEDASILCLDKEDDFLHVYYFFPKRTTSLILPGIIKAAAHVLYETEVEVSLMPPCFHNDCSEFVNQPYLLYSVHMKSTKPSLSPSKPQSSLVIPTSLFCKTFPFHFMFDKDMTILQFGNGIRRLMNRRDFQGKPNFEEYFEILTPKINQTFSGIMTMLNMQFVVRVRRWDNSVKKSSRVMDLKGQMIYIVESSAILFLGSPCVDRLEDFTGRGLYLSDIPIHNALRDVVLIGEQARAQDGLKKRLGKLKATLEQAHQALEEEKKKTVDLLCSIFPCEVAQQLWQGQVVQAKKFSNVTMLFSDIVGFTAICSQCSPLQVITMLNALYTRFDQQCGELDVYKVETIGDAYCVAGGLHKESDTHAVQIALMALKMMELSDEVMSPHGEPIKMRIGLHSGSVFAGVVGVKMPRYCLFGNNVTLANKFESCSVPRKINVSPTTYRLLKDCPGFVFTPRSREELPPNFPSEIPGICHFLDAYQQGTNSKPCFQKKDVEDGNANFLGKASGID
# T1 sequence (Q02153 1-619): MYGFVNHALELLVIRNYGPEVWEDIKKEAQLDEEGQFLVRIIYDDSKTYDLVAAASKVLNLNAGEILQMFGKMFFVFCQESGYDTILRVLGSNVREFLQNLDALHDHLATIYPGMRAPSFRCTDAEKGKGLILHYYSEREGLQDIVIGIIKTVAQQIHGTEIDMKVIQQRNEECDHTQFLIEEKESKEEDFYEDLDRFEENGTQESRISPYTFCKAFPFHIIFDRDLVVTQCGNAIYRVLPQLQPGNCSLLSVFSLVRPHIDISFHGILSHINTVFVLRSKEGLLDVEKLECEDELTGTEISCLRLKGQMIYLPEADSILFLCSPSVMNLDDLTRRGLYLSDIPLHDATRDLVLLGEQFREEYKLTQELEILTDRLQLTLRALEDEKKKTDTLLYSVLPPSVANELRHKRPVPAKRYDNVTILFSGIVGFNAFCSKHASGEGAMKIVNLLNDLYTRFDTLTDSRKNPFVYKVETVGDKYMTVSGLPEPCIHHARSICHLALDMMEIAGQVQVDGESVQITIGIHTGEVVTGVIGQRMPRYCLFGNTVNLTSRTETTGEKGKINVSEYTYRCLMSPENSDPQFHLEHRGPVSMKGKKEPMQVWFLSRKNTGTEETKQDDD
# Assay: Cell-Based sGC Functional Assay (CASA Assay)
# Details: CHO-K1/sGC cells; for pEC50: intracellular cGMP by HTRF, 1 hr at 37° C., IP from 4P fit, presence or absence of 1 μM DETA-NO not given; for Emax: cGMP as percentage of maximum cGMP production of Compound A (=100% activation), read-out: % ACT (percent activation)
# Summary of the method: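 cGMP accumulation was quantified by HTRF in stable human sGC α1/β1 CHO-K1 cells after 1 hr at 37 °C with compound, 0.5 mM IBMX and 2.5% DMSO. Runs were done in the presence and absence of 1 μM of the NO donor DETA-NO. Activation was normalised to the reference heme-dependent activator maximum (100%), and a 4P fit gave IP and maximum fold induction.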
pEC50,Emax [%],SMILES
6.27,93,"[2H]C([2H])([2H])n1ncc2c(-c3nc(N)c4c(n3)NC(=O)C4(C(N)=O)C(C)C)nc(CCC(F)(F)C(F)(F)F)nc21 (single isomer, unassigned) [Example 37, 4-Amino-5-isopropyl-2-(6-(3,3,4,4,4-pentafluorobutyl)-1-trideuteriomethyl-1H-pyrazolo[3,4-d]pyrimidin-4-yl)-6-oxo-6,7-dihydro-5H-pyrrolo[2,3-d]pyrimidine-5-carboxamide]"
7.28,119,"CCn1ncc2c(-c3nc(N)c4c(n3)NC(=O)C4(C)c3ccc(F)cc3)nc(CCC(F)(F)C(F)(F)F)nc21 (single isomer, unassigned) [Example 19, 4-Amino-2-(1-ethyl-6-(3,3,4,4,4-pentafluorobutyl)-1H-pyrazolo[3,4-d]pyrimidin-4-yl)-5-(4-fluorophenyl)-5-methyl-5H-pyrrolo[2,3-d]pyrimidin-6(7H)-one]"
6.21,92,"Cn1ncc2c(-c3nc(N)c4c(n3)NC(=O)C4(C)NC(=O)CC3CC3)nc(CCC(F)(F)C(F)(F)F)nc21 (stereo not shown) [Example 52, N-(4-Amino-5-methyl-2-(1-methyl-6-(3,3,4,4,4-pentafluorobutyl)-1H-pyrazolo[3,4-d]pyrimidin-4-yl)-6-oxo-6,7-dihydro-5H-pyrrolo[2,3-d]pyrimidin-5-yl)-2-cyclopropylacetamide]"
6.77,122,"Cn1ncc2c(-c3nc(N)c4c(n3)NC(=O)C4(C)C3CCCCC3)nc(CCC(F)(F)C(F)(F)F)nc21 (single isomer, unassigned) [Example 18, 4-Amino-5-cyclohexyl-5-methyl-2-(1-methyl-6-(3,3,4,4,4-pentafluorobutyl)-1H-pyrazolo[3,4-d]pyrimidin-4-yl)-5H-pyrrolo[2,3-d]pyrimidin-6(7H)-one]"
6.84,123,"CCn1ncc2c(-c3nc(N)c4c(n3)NC(=O)C4(C)c3ccc(F)cc3)nc(CCCC(F)(F)F)nc21 (single isomer, unassigned) [Example 20, 4-Amino-2-(1-ethyl-6-(4,4,4-trifluorobutyl)-1H-pyrazolo[3,4-d]pyrimidin-4-yl)-5-(4-fluorophenyl)-5-methyl-5H-pyrrolo[2,3-d]pyrimidin-6(7H)-one]"
6.87,131,"[2H]C([2H])([2H])n1ncc2c(-c3nc(N)c4c(n3)NC(=O)C4(C(=O)NCC)C3CC3)nc(CCC(F)(F)C(F)(F)F)nc21 (single isomer, unassigned) [Example 29, 4-Amino-5-cyclopropyl-N-ethyl-2-(6-(3,3,4,4,4-pentafluorobutyl)-1-trideuteriomethyl-1H-pyrazolo[3,4-d]pyrimidin-4-yl)-6-oxo-6,7-dihydro-5H-pyrrolo[2,3-d]pyrimidine-5-carboxamide]"
7.92,83,"Cn1ccc2c(-c3nc(N)c4c(n3)NC(=O)C4(C)c3ccccc3)nc(Cc3cccc(F)c3F)nc21 (single isomer, unassigned) [Example 64, 4-Amino-2′-(2,3-difluorobenzyl)-5,7′-dimethyl-5-phenyl-5H,7′H-[2,4′-bipyrrolo[2,3-d]pyrimidin]-6(7H)-one]"
6.81,69,"Cn1nnc2c(-c3nc(N)c4c(n3)NC(=O)C4(C)c3ccc(F)cc3)nc(Cc3cccc(F)c3F)nc21 (single isomer, unassigned) [Example 66]"
7.36,104,"COC1(C)C(=O)Nc2nc(-c3nc(CCC(F)(F)C(F)(F)F)nc4c3cnn4C)nc(N)c21 (single isomer, unassigned) [Example 56, 4-Amino-5-methoxy-5-methyl-2-(1-methyl-6-(3,3,4,4,4-pentafluorobutyl)-1H-pyrazolo[3,4-d]pyrimidin-4-yl)-5H-pyrrolo[2,3-d]pyrimidin-6(7H)-one]"
7.68,110,"[2H]C([2H])([2H])n1ncc2c(-c3nc(N)c4c(n3)NC(=O)C4(C)c3cccc(OC)c3)nc(CCC(F)(F)C(F)(F)F)nc21 (single isomer, unassigned) [Example 14, 4-Amino-5-(3-methoxyphenyl)-5-methyl-2-(6-(3,3,4,4,4-pentafluorobutyl)-1-trideuteriomethyl-1H-pyrazolo[3,4-d]pyrimidin-4-yl)-5H-pyrrolo[2,3-d]pyrimidin-6(7H)-one]"
6.06,121,"[2H]C([2H])([2H])n1ncc2c(-c3nc(N)c4c(n3)NC(=O)C4(CC)C(N)=O)nc(CCC(F)(F)C(F)(F)F)nc21 (single isomer, unassigned) [Example 36, 4-Amino-5-ethyl-2-(6-(3,3,4,4,4-pentafluorobutyl)-1-trideuteriomethyl-1H-pyrazolo[3,4-d]pyrimidin-4-yl)-6-oxo-6,7-dihydro-5H-pyrrolo[2,3-d]pyrimidine-5-carboxamide]"
6.18,93,"[2H]C([2H])([2H])n1ncc2c(-c3nc(O)c4c(n3)NC(=O)C4(C)c3ccc(F)cc3)nc(CCC(F)(F)C(F)(F)F)nc21 (stereo not shown) [Example 48, 5-(4-Fluorophenyl)-4-hydroxy-5-methyl-2-(6-(3,3,4,4,4-pentafluorobutyl)-1-trideuteriomethyl-1H-pyrazolo[3,4-d]pyrimidin-4-yl)-5H-pyrrolo[2,3-d]pyrimidin-6(7H)-one]"
6.06,104,"Cn1ncc2c(-c3nc(N)c4c(n3)NC(=O)C4(C)NC(=O)C3CC3)nc(CCC(F)(F)C(F)(F)F)nc21 (stereo not shown) [Example 53, N-(4-Amino-5-methyl-2-(1-methyl-6-(3,3,4,4,4-pentafluorobutyl)-1H-pyrazolo[3,4-d]pyrimidin-4-yl)-6-oxo-6,7-dihydro-5H-pyrrolo[2,3-d]pyrimidin-5-yl)cyclopropanecarboxamide]"
6.84,121,"Cn1ncc2c(-c3nc(N)c4c(n3)NC(=O)C4(C)c3ccc(F)cc3)nc(CCC(F)(F)F)nc21 (single isomer, unassigned) [Example 11, 4-Amino-5-(4-fluorophenyl)-5-methyl-2-(1-methyl-6-(3,3,3-trifluoropropyl)-1H-pyrazolo[3,4-d]pyrimidin-4-yl)-5H-pyrrolo[2,3-d]pyrimidin-6(7H)-one]"
6.61,105,"Cn1ncc2c(-c3nc(N)c4c(n3)NC(=O)C4(C)C#N)nc(CCC(F)(F)C(F)(F)F)nc21 (single isomer, unassigned) [Example 49, 4-Amino-5-methyl-2-(1-methyl-6-(3,3,4,4,4-pentafluorobutyl)-1H-pyrazolo[3,4-d]pyrimidin-4-yl)-6-oxo-6,7-dihydro-5H-pyrrolo[2,3-d]pyrimidine-5-carbonitrile]"
7.33,106,"[2H]C([2H])([2H])n1ccc2c(-c3nc(N)c4c(n3)NC(=O)C4(C)c3ccccc3)nc(CCC(F)(F)C(F)(F)F)nc21 (single isomer, unassigned) [Example 60, 4-Amino-5-methyl-2′-(3,3,4,4,4-pentafluorobutyl)-5-phenyl-7′-trideuteriomethyl-5H,7′H-[2,4′-bipyrrolo[2,3-d]pyrimidin]-6(7H)-one]"
7.34,128,"[2H]C([2H])([2H])n1ncc2c(-c3nc(N)c4c(n3)NC(=O)C4(C)C#C)nc(CCC(F)(F)C(F)(F)F)nc21 (single isomer, unassigned) [Example 22, 4-Amino-5-ethynyl-5-methyl-2-(6-(3,3,4,4,4-pentafluorobutyl)-1-trideuteriomethyl-1H-pyrazolo[3,4-d]pyrimidin-4-yl)-5H-pyrrolo[2,3-d]pyrimidin-6(7H)-one]"
